Experimental data published in US9017938B2, “Use of microrna-199b-5p in medical and diagnostic field” (Advanced Accelerator Applications, priority 2009, dated 2015).

Columns and labels:
Daoy cells [1] = assay: Expression of differentiation and proliferation markers (real-time PCR, Western blot); assay type: cell-based, human
Experimental: Total RNA was extracted from the cell lines using the Trizol reagent (Invitrogen). Synthesis of cDNA from total RNA (4 μg) was performed using a Super Script II First Strand Kit (Invitrogen). Real-time quantitative PCR was performed using standard protocols with an Applied Biosystems ABI PRISM 7900HT Sequence Detection system. To calculate the relative gene expression of the miR-199b-5p precursor, the relative amounts of each pre-miRNA were normalized to U6 miRNA; the other genes were normalized using the β-actin gene. Real-time PCR primers for each gene were designed using Primer Express software version 2.0 (Applied Biosystems). The primer sequences are available upon request.
(§1) Thirty μg cytosolic or nuclear lysates were loaded onto 12% polyacrilamide gels, and blotted onto polyvinylidene difluoride membranes (PVDF; BioRad, Milan, Italy). The membranes were then incubated with anti-HES1 (kind gift of Dr. Tetsuo Sudo TORAY Industries, Tebiro Kamakura, Japan), a polyclonal rabbit antibody (1:500), an anti-GSK3-β (B&D Bioscience) monoclonal antibody (1:2500), an anti-c-Myc polyclonal rabbit antibody (1:200) (Santa Cruz Biotechnology, Santa Cruz, Calif., USA), an anti-GABRA6 antibody (Santa Cruz Biotechnology, Santa Cruz, USA) (1:200), an anti-MATH3 antibody (Santa Cruz Biotechnology, Santa Cruz, USA) (1:200) and an anti-cyclin D1 (1:200) polyclonal rabbit antibody (Cell Signaling). An anti-β-actin antibody (1:1.000) (Sigma) was used as the control for equal loading of cytosolic lysates and a polyclonal anti-β-laminin antibody (1:50) (Santa Cruz Biotechnology, Santa Cruz, Calif., USA) for equal loading of nuclear lysates.

GSK3-β = assay: Western blotting of GSK3-β; assay type: cell-based, human; details: stable 199bSC1 clone
Experimental: as §1

[2] = system: Daoy cell side population; assay: Side population FACS (Hoechst 33342 exclusion); assay type: cell-based, human
Experimental: (§2) The flow cytometry analysis of S-phase fractions and cell-cycle kinetics were carried out using a FACSCalibur (Becton Dickinson, San Jose, Calif.) using CELL Quest version 3.3 software. The CD133 studies were carried out using the same instrument, with antibodies from Miltenyi Biotec (Auburn, Calif.), according to the manufacturer instructions. In brief, the cells were blocked in Fc receptor blocking reagent and incubated with an anti-CD133/1 (AC133)-phycoerythrin antibody (Miltenyi Biotec), for 10 min in the dark at 4° C. The cells were then washed and resuspended in PBS. Cells expressing higher levels of CD133 than the immunoglobulin G (IgG) controls were considered positive. For analyses of the side populations, cells […] were incubated with Hoechst 33342 (5 μmol/L; Sigma) for 90 min at 37° C. in EMEM containing 2% FBS. To ensure the correct identification of the side population cells, the cells were incubated as above with the addition of 50 μM verapamil (Sigma).

HES1 = assay: Western blotting of HES1 protein; assay type: cell-based, human
Experimental: as §1

CD133+ Daoy cells = assay: CD133 FACS analysis; assay type: cell-based, human
Experimental: as §2

Daoy cells [3] = assay: Soft-agar colony formation assay; assay type: cell-based, human; details: stable 199bSC1 clone vs empty-vector clone
Experimental: Daoy cells and the stable 199b clone were seeded in 1 ml EMEM supplemented with 2% FBS, containing 0.3% agarose. Cultures were maintained for two weeks and refreshed with EMEM supplemented with 2% FBS twice per week. Colonies of more than 100 μm in diameter were counted under a Leica (Nussloch, Germany) DC500 compound microscope.

NHLH2 3′UTR = assay: Luciferase reporter assay, full-length 3′UTR; assay type: cell-based; details: miR-199b-5p over-expression in Daoy cells
Experimental: (§3) To determine the activity of miR-199b-5p on repression of the luciferase-3′UTR fused constructs, the pREYZO-miR-199b-5p construct and the pRL-CMV-3′UTR target construct were co-transfected into HEK293 cells at a ratio of 10:1, using the Polyfect reagent (Qiagen) together with the pGL3 basic vector, in the absence and presence of 2-OM (400 nM). Luciferase activities were analysed using a Dual Luciferase Reporter Assay system (Promega, Madison, Wis.).

cyclin L1 3′UTR = assay: Luciferase reporter assay, full-length 3′UTR; assay type: cell-based; details: miR-199b-5p over-expression in Daoy cells
Experimental: as §3

Nanog 3′UTR = assay: Luciferase reporter assay, full-length 3′UTR; assay type: cell-based; details: miR-199b-5p over-expression in Daoy cells
Experimental: as §3

[4] = Western blot, stable 199bSC1 clone

With “miR-199b-5p: mature microRNA CCCAGUGUUUAGACUAUCUGUUC (SEQ ID NO:11); over-expressed from pre-miR-199b construct, e.g. stable Daoy clones 199bSC1, 199bMC1 (listed as RNA, chemistry not fully specified)” the GABRA6 protein (Daoy cells [1]; [4]) was “up-regulated”, the MATH3 protein (Daoy cells [1]; [4]) was “up-regulated” and the c-Myc protein (Daoy cells [1]; [4]) was “decreased”. The “cyclin D1 protein” value (Daoy cells [1]; [4]) was “decreased”, the “expression of pro-neural bHLH (MASH1, MATH3, NGN2)” value (Daoy cells [1]; real-time PCR, both stable clones) was “increases in expression” and the “MAP2 mRNA expression” value (Daoy cells [1]; real-time PCR, stable 199bSC1 and 199bMC1 clones) was “up-regulated”. The GFAP levels (Daoy cells [1]; real-time PCR, stable 199bSC1 clone) was “increased”, the “GABRA6 mRNA expression” value (Daoy cells [1]; real-time PCR, stable clones) was “significantly over-expressed” and the c-Myc expression (Daoy cells [1]; real-time PCR, stable clones) was “decreased”. For the same substance, the “cyclin D1 expression” value (Daoy cells [1]; real-time PCR, stable clones) was “decreased”, the GSK3-β protein levels (GSK3-β) was “did not show any significant reductions” and the “fraction of SP cells” value ([2]; stable 199bMC1 clone (Daoy cells 5.2%)) was 0.4%. For the same substance, the “fraction of SP cells” value ([2]; stable 199bSC1 clone (Daoy cells 5.2%)) was 0.2%, the “endogenous HES1 protein level” value (HES1; D283 cells, transient transfection vs empty vector) was “lowered the levels of the endogenous HES1 protein” and the “endogenous HES1 protein level” value (HES1; HEK293 cells, transient transfection, 48 h) was “lowered the levels of the endogenous HES1 protein”. The HES1 protein level (HES1; stable Daoy clone 199bSC1) was “no detectable HES1”, the HES1 protein level (HES1; three stable Daoy clones over-expressing miR-199b-5p) was “reduced HES1 protein levels” and the “CD133+ cells” value (CD133+ Daoy cells; stable 199bMC1 clone (wild-type cells 14.8%)) was 6.5%. For the same substance, the “CD133+ cells” value (CD133+ Daoy cells; stable 199bSC1 clone (wild-type cells 14.8%)) was 2.4%, the “reduction in colony formation potential” value (Daoy cells [3]) was 80% and the “down-regulation of reporter carrying NHLH2 3′UTR” value (NHLH2 3′UTR) was “did not detect any down-regulatory effects”. The “down-regulation of reporter carrying cyclin L1 3′UTR” value (cyclin L1 3′UTR) was “did not detect any down-regulatory effects” and the “down-regulation of reporter carrying Nanog 3′UTR” value (Nanog 3′UTR) was “did not detect any down-regulatory effects”.
